Measured values from article PMC10609273, “Radiosynthesis and Early Evaluation of a Positron Emission Tomography Imaging Probe [^18F]AGAL Targeting Alpha-Galactosidase A Enzyme for Fabry Disease” (Molecules, 2023).

Assay: In vitro liver microsomal metabolism study, mouse
Format: in vitro ADME
Details: mouse liver microsomes
Description: Metabolic stability was assessed by incubating compounds in the presence of human, rat, and mouse liver microsomal fractions (Xenotech, Kansas City, KS, USA). All chemicals and reagents, including control compounds, were purchased from commercial sources such as Sigma-Aldrich (St. Louis, MO, USA) or Toronto Research Chemicals (North York, ON, Canada). Liver microsomal incubations were conducted with 100 mM phosphate buffer, 0.5 mg/mL of liver microsomal protein, 2 mM NADPH, 2.5 mM UDPGA, 3 mM MgCl2, alamethicin, and 1 μM test article for a total incubation volume of 80 µL. All reagents except the liver microsomes were mixed together and aliquoted (60 μL) into 96-well plates. The reaction was initiated by adding the microsomes (20 μL). At 0, 3, 7, 12, 20, and 30 min time points, the reactions were terminated with the addition of acetonitrile-containing carbutamide (as an internal standard). The terminated samples were then centrifuged at 2 °C to pellet the protein and the supernatant was injected onto an LC–MS. The test article was monitored for loss over time and the t1/2 was determined. The calculated t1/2 was then used as described below to determine the Eh (hepatic extraction ratio) for both human and rat.
The intrinsic clearance (CLint), hepatic clearance (CLh), and hepatic extraction ratio (Eh) were calculated using the equations below. CLint = (0.693/t1/2 in vitro) × (mL incubation volume/mg microsomal protein) × (X mg of microsomal protein/gram of liver) × (Y g of liver/kg of body weight)(1) CLh = Q × CLint/Q + CLint(2) Eh = CLh/Q(3) where: • CLint = intrinsic clearance (calculated from microsomal incubations) • X = 40 for human, 41.5 for rat and 45 for mouse • Y = 21.4 for human, 40 for rat and 50 for mouse • t1/2 = half-life • CLh = hepatic clearance • Q = liver blood flow rate = 1.24 L/h/kg for human, 4.8 L/h/kg for rat, and 5.4 L/h/kg for mouse • Eh = hepatic extraction ratio • CLh = hepatic clearance

## O=C(CCCCCCCn1cc(CCCF)nn1)N1[C@@H]2[C@H](O)[C@@H](O)[C@@H](O)[C@@H](CO)[C@@H]21 [AGAL]
  CLh: 68.8 mL/min/kg
  Eh (hepatic extraction ratio): 0.766
  microsomal stability, clearance in words: highly cleared
1 μM, NADPH + UDPGA
  CLint scaled at 1 µM: 293 mL/min/kg
